Measurements published in patent US7157482B2, “Antibacterial 1,3-oxazolidin-2-one derivatives” (AstraZeneca AB, priority 2003, dated 2007).
≈ marks a conversion by molar mass, not a printed value.

Key:
[1] = tested on: Staphylococcus aureus MRQR (methicillin resistant and quinolone resistant); assay: MIC, agar-dilution, Staphylococcus aureus MRQR; assay type: cell-based; conditions: S. aureus MRQR, inoculum 10^4 CFU/spot, 37° C., 24 hours
Method: (§1) The following results were obtained on a standard in-vitro test system. The activity is described in terms of the minimum inhibitory concentration (MIC) determined by the agar-dilution technique with an inoculum size of 10^4 CFU/spot. Typically, compounds are active in the range 0.01 to 256 μg/ml.
(§2) Staphylococci were tested on agar, using an inoculum of 10^4 CFU/spot and an incubation temperature of 37° C. for 24 hours—standard test conditions for the expression of methicillin resistance.

[2] = tested on: Staphylococcus aureus MSQS (methicillin sensitive and quinolone sensitive); assay: MIC, agar-dilution, Staphylococcus aureus MSQS; assay type: cell-based; conditions: S. aureus MSQS, inoculum 10^4 CFU/spot, 37° C., 24 hours
Method: as §1, §2

MAO-A = target: T1, MAO-A (Homo sapiens, UniProt P21397); assay: MAO-A in-vitro assay, human liver enzyme expressed in yeast; assay type: biochemical
T1 construct: made in house; host or cells: yeast
T1 sequence (P21397 1-527): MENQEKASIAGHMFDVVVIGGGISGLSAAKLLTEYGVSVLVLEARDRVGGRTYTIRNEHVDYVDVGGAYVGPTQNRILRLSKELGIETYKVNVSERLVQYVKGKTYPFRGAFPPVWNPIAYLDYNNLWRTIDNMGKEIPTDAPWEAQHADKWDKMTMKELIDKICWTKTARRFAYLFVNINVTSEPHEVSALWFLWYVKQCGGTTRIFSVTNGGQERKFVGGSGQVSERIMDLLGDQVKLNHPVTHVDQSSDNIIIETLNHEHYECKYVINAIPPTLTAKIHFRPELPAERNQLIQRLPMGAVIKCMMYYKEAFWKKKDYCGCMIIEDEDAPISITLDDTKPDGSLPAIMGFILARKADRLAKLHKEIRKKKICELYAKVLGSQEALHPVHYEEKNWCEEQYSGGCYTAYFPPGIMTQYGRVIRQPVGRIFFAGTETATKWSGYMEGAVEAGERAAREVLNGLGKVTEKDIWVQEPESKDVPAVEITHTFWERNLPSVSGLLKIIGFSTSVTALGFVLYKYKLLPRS
Method: The activity of the compounds of the invention against MAO-A was tested using a standard in-vitro assay based on human liver enzyme expressed in yeast as described in Biochem. Biophys. Res. Commun. 1991, 181, 1084–1088.

Moraxella catarrhalis = assay: MIC, Moraxella catarrhalis; assay type: cell-based; conditions: fastidious Gram negative: Mueller-Hinton broth with hemin and NAD, 24 hours, 37° C., 5×10^4 CFU/well
Method: as §1
(§3) Streptococci and enterococci were tested on agar supplemented with 5% defibrinated horse blood, an inoculum of 10^4 CFU/spot and an incubation temperature of 37° C. in an atmosphere of 5% carbon dioxide for 48 hours—blood is required for the growth of some of the test organisms. Fastidious Gram negative organisms were tested in Mueller-Hinton broth, supplemented with hemin and NAD, grown aerobically for 24 hours at 37° C., and with an innoculum of 5×10^4 CFU/well.

Enterococcus faecium = assay: MIC, agar-dilution, Enterococcus faecium; assay type: cell-based; conditions: agar with 5% defibrinated horse blood, 10^4 CFU/spot, 37° C., 5% carbon dioxide, 48 hours
Method: as §1, §3

Streptococcus pneumoniae = assay: MIC, agar-dilution, Streptococcus pneumoniae; assay type: cell-based; conditions: agar with 5% defibrinated horse blood, 10^4 CFU/spot, 37° C., 5% carbon dioxide, 48 hours
Method: as §1, §3

| SMILES | MIC [1] | MIC [2] | Ki (MAO-A) | MIC (Moraxella catarrhalis) | MIC (Enterococcus faecium) | MIC (Streptococcus pneumoniae) |
| --- | --- | --- | --- | --- | --- | --- |
| Cc1cn(C[C@H]2CN(c3ccc(-c4cc(C)no4)c(F)c3)C(=O)O2)nn1 [Example 1, (5R)-3-[3-Fluoro-4-(3-methylisoxazol-5-yl)phenyl]-5-[(4-methyl-1H-1,2,3-triazol-1-yl)methyl]-1,3-oxazolidin-2-one] | 1 µg/mL (≈ 2.8 µM) | 4 µg/mL (≈ 11.2 µM) | 58.8 µM | 1 µg/mL (≈ 2.8 µM) | 1 µg/mL (≈ 2.8 µM) | 0.5 µg/mL (≈ 1.4 µM) |
| Cc1cc(-c2ccc(N3C[C@H](Cn4ccnn4)OC3=O)cc2F)on1 [unsubstituted triazole equivalent, reference compound] | – | – | 6.99 µM | – | – | – |
